Data taken from patent US20120077818A1, “COMPOSITIONS COMPRISING TRANSNORSERTRALINE AND SEROTONIN RECEPTOR 1A AGONISTS/ANTAGONISTS AND USES THEREOF” (Sunovion Pharmaceuticals Inc., priority 2009, published 2012).
“Also recorded” adds a separate entry of the source.

Tested on: dorsal raphe 5-HT neurons
Test: In vivo electrophysiological recordings of dorsal raphe (DR) 5-HT neurons
Design: species or system rat
Description: Male Sprague Dawley rats (Charles River, St. Constant, QC) weighing 250 to 300 g, were used for the experiments. They were housed individually and kept under standard laboratory conditions (12:12 hour light/dark cycle with free access to food and water). All animals were handled according to the guidelines of the Canadian Council on Animal Care (CCAC) and protocols in this study were approved by the local Animal Care Committee (Ottawa Health Research Institute, Ottawa, ON, Canada).
Rats were anaesthetized with chloral hydrate (400 mg/kg; i.p.) and placed into a stereotaxic frame. The extracellular recordings of 5-HT neurons in the dorsal raphe (“DR”) were carried out using single-barrelled glass micropipettes (R&D Scientific Glass, Spencerville, Md.) preloaded with a 2 M NaCl solution. Their impedance typically ranged between 4-7 MΩ.
The single-barrelled glass micropipettes were positioned using the following coordinates (in mm from lambda): AP, +1.0 to 1.2; L, 0±0.1; V, 5 to 7. The presumed 5-HT neurons were then identified using the following criteria: a slow (0.5-2.5 Hz) and regular firing rate and long-duration (2-5 ms) bi- or triphasic extracellular waveform (Aghajanian and Vandermaelen, 1982b). […] This occasional firing pattern of 5-HT neurons was analyzed by spike interval burst analysis following the criteria set by Hajos et al. The onset of a burst was defined as the occurrence of two spikes with an interspike interval shorter than 0.005 s.
The percent of baseline firing rate were measured 60 seconds after systemic administration of the triple reuptake inhibitor. Various parameters were determined to examine the electrophysiological effects of co-administration of a transnorsertraline with WAY-100635. These parameters included the number of single spikes, bursts, cells per track and the firing rate of 5-HT neurons.
Electrophysiological data expressed as means±S.E.M of percent of baseline firing rate or as means±S.E.M of single spikes or bursts measured from the same neurons. Data were analyzed by using a one- or two-ways analysis of variance (ANOVA), with treatment, treatment and pre-treatment or treatment and brain region as main factors. Fisher's protected least significant difference test (Fisher's PLSD-test) was used to analyze the statistical significance between groups. The paired Student's t test was used in experiments comparing two groups. In each experiment, a level of p<0.05 was accepted as evidence for a statistically significant effect.

[1] = rats pre-treated with WAY-100635

SMILES	number of bursts of 5-HT neurons (effect in words) [1]	number of single spikes of 5-HT neurons (effect in words) [1]	DR 5-HT firing rate (effect in words) (rats pre-treated with WAY-100635, (1R,4S)-transnorsertraline 0.5-2 mg/kg iv)	spontaneous firing rate of DR 5-HT neurons (effect in words) (WAY-100635 alone, 100 μg/kg iv)	spontaneous firing rate of DR 5-HT neurons (WAY-100635 alone, 100 μg/kg iv, printed as 1.3±0.1 vs 1.4±0.1 (n=8), in Hz (unit assumed))
N[C@@H]1CC[C@@H](c2ccc(Cl)c(Cl)c2)c2ccccc21 [(1R,4S)-transnorsertraline, (1R,4S)-trans-4-(3,4-dichlorophenyl)-1,2-3,4-tetrahydro-1-naphthalenamine]	significantly increased	significantly increased	significant increase; also recorded: markedly increased	–	–
COc1ccccc1N1CCN(CCN(C(=O)C2CCCCC2)c2ccccn2)CC1 [WAY-100635, reference compound]	–	–	–	did not alter	1.4±0.1
